Results on 17 molecules are retold here after ChEMBL document CHEMBL2157869, “N'-substituted-2'-O,3'-N-carbonimidoyl bridged macrolides: novel anti-inflammatory macrolides without antimicrobial activity” (J Med Chem, 2012).

One data set has as its system Moraxella catarrhalis. Description: Antibacterial activity against Moraxella catarrhalis ATCC 23246 by CLSI broth microdilution method. It is filed as functional.
The nature of data set [1]: Antiinflammatory activity in mouse splenocytes assessed as inhibition of LPS-induced IL-6 production in mouse splenocytes at 25 uM preincubated for 2 hrs prior to LPS challenge by sandwich ELISA. Format: functional. To be noted: Splenocyte.
In data set [2] the target is T1, Cytochrome P450 3A4 (Homo sapiens, UniProt P08684).
Description: Inhibition of human recombinant CYP3A4 using 7-BQ as substrate preincubated for 5 to 10 mins before substrate addition
For a further data set, the system named is Streptococcus pyogenes. Description: Antibacterial activity against Streptococcus pyogenes ATCC 700294 by CLSI broth microdilution method. Format: functional.
Data set [3] is described as follows: Antiinflammatory activity in mouse splenocytes assessed as inhibition of LPS-induced IL-6 production at 50 uM preincubated for 2 hrs prior to LPS challenge by sandwich ELISA. The note with it: Splenocyte. Format: functional.
Data set [4] in a line: Antiinflammatory activity in mouse splenocytes assessed as inhibition of LPS-induced IL-6 production at 12 uM preincubated for 2 hrs prior to LPS challenge by sandwich ELISA. It is filed as functional. To be noted: Splenocyte.
The target of data set [5] is T1, Cytochrome P450 3A4. The source holds these as a separate data set.
Description: Inhibition of human recombinant CYP3A4 using DEF as substrate preincubated for 5 to 10 mins before substrate addition
A short description of data set [6]: Cytotoxicity against human THP1 cells assessed as cell viability at 50 uM after 24 hrs by MTT assay. It is filed as cell-based, THP-1. To be noted: read-out: Activity.
The test system of a further data set is Streptococcus pneumoniae. Description: Antibacterial activity against Streptococcus pneumoniae ATCC 49619 by CLSI broth microdilution method. Format: functional.
The next data set relates to Staphylococcus aureus. Description: Antibacterial activity against Staphylococcus aureus ATCC 13709 by CLSI broth microdilution method. It is filed as functional.
The next data set has as its system Haemophilus influenzae. Description: Antibacterial activity against Haemophilus influenzae ATCC 49247 by CLSI broth microdilution method. It is filed as functional.
Data set [7] has as its system Mus musculus. Description: Antiinflammatory activity in BALB/cJ mouse assessed as decrease in LPS-induced total cell number in bronchoalveolar lavage fluid at 200 mg/kg, ip administered 2 hrs prior to LPS challenge measured after 24 hrs post LPS challenge. Format: functional, organism-based. On the set-up: dose 200 mg/kg. The note with it: Lung.
The test system of data set [8] is Mus musculus. Description: Antiinflammatory activity in BALB/cJ mouse assessed as decrease in LPS-induced neutrophil number in bronchoalveolar lavage fluid at 200 mg/kg, ip administered 2 hrs prior to LPS challenge measured after 24 hrs post LPS challenge. Format: functional, organism-based. On the set-up: dose 200 mg/kg. To be noted: Lung.

Structures are written as SMILES. pIC50: −log10 of the molar value. Values after ≈ are worked out from the molar mass of the structure shown. Active and inactive are the calls of the source. No cut-off for these calls is given here.

T1 sequence (P08684 whole entry): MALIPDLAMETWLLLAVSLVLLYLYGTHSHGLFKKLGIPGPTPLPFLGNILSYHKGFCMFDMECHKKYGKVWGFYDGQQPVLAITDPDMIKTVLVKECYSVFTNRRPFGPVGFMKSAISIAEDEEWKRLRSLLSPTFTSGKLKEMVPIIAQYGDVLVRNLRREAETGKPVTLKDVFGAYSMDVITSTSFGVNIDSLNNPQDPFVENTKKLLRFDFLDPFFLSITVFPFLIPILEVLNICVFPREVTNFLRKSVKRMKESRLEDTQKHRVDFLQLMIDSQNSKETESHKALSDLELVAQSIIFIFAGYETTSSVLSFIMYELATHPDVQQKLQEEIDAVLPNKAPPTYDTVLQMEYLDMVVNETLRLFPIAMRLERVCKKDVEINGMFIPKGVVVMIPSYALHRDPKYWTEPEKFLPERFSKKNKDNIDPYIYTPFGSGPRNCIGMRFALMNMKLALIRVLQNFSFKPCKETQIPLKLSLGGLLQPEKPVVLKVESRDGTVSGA

In the data set on Moraxella catarrhalis, `CC[C@H]1OC(=O)[C@H](C)[C@@H](O[C@H]2C[C@@](C)(OC)[C@@H](O)[C@H](C)O2)[C@H](C)[C@@H](O[C@@H]2O[C@H](C)C[C@H]3[C@H]2O/C(=N/C(C)C)N3C)[C@@](C)(OC)C/C(C)=C2/O[C@@]1(C)C=C2C` yielded a minimum inhibitory concentration (MIC) of 8 µg/mL (≈ 10.5 µM).

On to `CC/N=C1/O[C@H]2[C@H](O[C@@H]3[C@@H](C)[C@H](O[C@H]4C[C@@](C)(OC)[C@@H](O)[C@H](C)O4)[C@@H](C)C(=O)O[C@H](CC)[C@]4(C)C=C(C)/C(=C(/C)C[C@]3(C)OC)O4)O[C@H](C)C[C@@H]2N1C`, for which the MIC against Moraxella catarrhalis came out at 8 µg/mL (≈ 10.7 µM).

Turning to `CC[C@H]1OC(=O)[C@H](C)[C@@H](O[C@H]2C[C@@](C)(OC)[C@@H](O)[C@H](C)O2)[C@H](C)[C@@H](O[C@@H]2O[C@H](C)C[C@H]3[C@H]2O/C(=N\CCCSC)N3C)[C@](C)(OC)C[C@@H](C)C(=O)N[C@H](C)[C@@H](O)[C@]1(C)O`, the inhibition at 25 µM in data set [1] came out at 48%. In addition, the results for the negative-log IC50 (pIC50) at Cytochrome P450 3A4 [2] and against Cytochrome P450 3A4 [5] were below 5.00 and 5.88, respectively. The molecule further registered a minimal inhibitory concentration (MIC) in the data set on Streptococcus pyogenes above 64 µg/mL. Besides, the inhibition at 50 µM in data set [3] is 67%. The inhibition at 12 µM in data set [4] came out at 36%. Also, the viability at 24 h, 50 µM in [6] came out at 0%.

The molecule `CC[C@H]1OC(=O)[C@H](C)[C@@H](O[C@H]2C[C@@](C)(OC)[C@@H](O)[C@H](C)O2)[C@H](C)[C@@H](O[C@@H]2O[C@H](C)C[C@H]3[C@H]2O/C(=N/C(C)C)N3C)[C@](C)(OC)C[C@@H](C)N(C)C[C@H](C)[C@@H](O)[C@]1(C)O` gave a minimal inhibitory concentration (MIC) against Streptococcus pneumoniae of 1 µg/mL (≈ 1.23 µM).

For `CC/N=C1\O[C@H]2[C@H](O[C@@H]3[C@@H](C)[C@H](O[C@H]4C[C@@](C)(OC)[C@@H](O)[C@H](C)O4)[C@@H](C)C(=O)O[C@H](CC)[C@@](C)(O)[C@H](O)[C@@H](C)C(=O)[C@H](C)C[C@@]3(C)O)O[C@H](C)C[C@@H]2N1C`, the inhibition at 25 µM in data set [1] is 80%. The values for the pIC50 against Cytochrome P450 3A4 [2] and against Cytochrome P450 3A4 [5] were 5.24 and 6.30, respectively. The same molecule had an MIC with Streptococcus pyogenes above 64 µg/mL. For the same molecule, the inhibition at 50 µM in [3] came out at 86%. Besides, the inhibition at 12 µM in data set [4] was 70%. For the same molecule, the viability at 24 h, 50 µM in [6] worked out at 0%.

As to `CC[C@H]1OC(=O)[C@H](C)[C@@H](O[C@H]2C[C@@](C)(OC)[C@@H](O)[C@H](C)O2)[C@H](C)[C@@H](O[C@@H]2O[C@H](C)C[C@H]3[C@H]2O/C(=N\C(C)(C)C)N3C)[C@](C)(OC)C[C@@H](C)C(=O)N[C@H](C)[C@@H](O)[C@]1(C)O`, the inhibition at 25 µM in data set [1] stood at 62%. The minimal inhibitory concentration (MIC) in the data set with Streptococcus pyogenes is above 64 µg/mL. In addition, the inhibition at 50 µM in [3] was 86%. The inhibition at 12 µM in [4] was 52%. Further, the viability at 24 h, 50 µM in [6] amounted to 0%.

As for `CC[C@H]1OC(=O)[C@H](C)[C@@H](O[C@H]2C[C@@](C)(OC)[C@@H](O)[C@H](C)O2)[C@H](C)[C@@H](O[C@@H]2O[C@H](C)C[C@H]3[C@H]2O/C(=N/Cc2ccccc2)N3C)[C@](C)(O)C[C@@H](C)CN(C)[C@H](C)[C@@H](O)[C@]1(C)O`, the minimum inhibitory concentration (MIC) with Streptococcus pneumoniae is 1 µg/mL (≈ 1.18 µM).

In the data set with Streptococcus pneumoniae, `CC[C@H]1OC(=O)[C@H](C)[C@@H](O[C@H]2C[C@@](C)(OC)[C@@H](O)[C@H](C)O2)[C@H](C)[C@@H](O[C@@H]2O[C@H](C)C[C@H]3[C@H]2O/C(=N/Cc2ccccc2)N3C)[C@](C)(OC)C[C@@H](C)NC(=O)[C@H](C)[C@@H](O)[C@]1(C)O` came in with a minimal inhibitory concentration (MIC) of 1 µg/mL (≈ 1.16 µM).

In the case of `CC/N=C1/O[C@H]2[C@H](O[C@@H]3[C@@H](C)[C@H](O[C@H]4C[C@@](C)(OC)[C@@H](O)[C@H](C)O4)[C@@H](C)C(=O)O[C@H](CC)[C@@]4(C)OC5(O[C@@]3(C)C[C@H]5C)[C@H](C)[C@@H]4C)O[C@H](C)C[C@@H]2N1C`, the result with Streptococcus pneumoniae, in the data set on Streptococcus pyogenes, with Moraxella catarrhalis, in the data set on Staphylococcus aureus and with Haemophilus influenzae was Active.

In the case of `CC[C@H]1OC(=O)[C@H](C)[C@@H](O[C@H]2C[C@@](C)(OC)[C@@H](O)[C@H](C)O2)[C@H](C)[C@@H](O[C@@H]2O[C@H](C)C[C@H]3[C@H]2O/C(=N\C(C)C)N3C)[C@](C)(OC)C[C@@H](C)NC(=O)[C@H](C)[C@@H](O)[C@]1(C)O`, in [1], the inhibition at 25 µM was 55%. Moreover, the results for the negative logarithm of the IC50 (pIC50) on Cytochrome P450 3A4 [2] and against Cytochrome P450 3A4 [5] were below 5.00 and 6.00, respectively. Also, the MIC with Streptococcus pyogenes is above 64 µg/mL. The inhibition at 50 µM in data set [3] was determined as 67%. For the same molecule, the inhibition at 12 µM in [4] is 45%. Moreover, in data set [6], the viability at 24 h, 50 µM was 0%.

In the case of `CC/N=C1\O[C@H]2[C@H](O[C@@H]3[C@@H](C)[C@H](O[C@H]4C[C@@](C)(OC)[C@@H](O)[C@H](C)O4)[C@@H](C)C(=O)O[C@H](CC)[C@@](C)(O)[C@H](O)[C@@H](C)N(C)C[C@H](C)C[C@@]3(C)O)O[C@H](C)C[C@@H]2N1C`, the result in the data set on Mus musculus [7] and in the data set with Mus musculus [8] was Active. In addition, the inhibition at 25 µM in data set [1] was found to be 96%. Moreover, the negative logarithm of the IC50 (pIC50) on Cytochrome P450 3A4 [2] was below 5.00; at Cytochrome P450 3A4 [5], 5.10. Also, the MIC against Streptococcus pyogenes was above 64 µg/mL. The inhibition at 50 µM in data set [3] turned out to be 99%. Further, the inhibition at 12 µM in [4] came to 86%. In data set [6], the viability at 24 h, 50 µM came to 0%.

Turning to `CC[C@H]1OC(=O)[C@H](C)[C@@H](O[C@H]2C[C@@](C)(OC)[C@@H](O)[C@H](C)O2)[C@H](C)[C@@H](O[C@@H]2O[C@H](C)C[C@H]3[C@H]2O/C(=N\CCCN(C)C)N3C)[C@](C)(OC)C[C@@H](C)C(=O)[C@H](C)[C@@H](O)[C@]1(C)O`, the inhibition at 25 µM in data set [1] is 62%. The negative-log IC50 (pIC50) is 5.10 at Cytochrome P450 3A4 [2] and 6.15 at Cytochrome P450 3A4 [5]. In the data set on Streptococcus pyogenes, this molecule yielded a minimum inhibitory concentration (MIC) above 64 µg/mL. Besides, the inhibition at 50 µM in [3] was 74%. Moreover, the inhibition at 12 µM in data set [4] was found to be 55%. Further, the viability at 24 h, 50 µM in [6] was found to be 0%.

Take `CC/N=C1\O[C@H]2[C@H](O[C@@H]3[C@@H](C)[C@H](O[C@H]4C[C@@](C)(OC)[C@@H](O)[C@H](C)O4)[C@@H](C)C(=O)O[C@H](CC)[C@@](C)(O)[C@H](O)[C@@H](C)C(=O)[C@H](C)C[C@@]3(C)OC)O[C@H](C)C[C@@H]2N1C`: the inhibition at 25 µM in [1] was determined as 64%. The molecule further gave a negative-log IC50 (pIC50) on Cytochrome P450 3A4 [2] of 5.54. The molecule also displayed an MIC against Streptococcus pyogenes above 64 µg/mL. Moreover, in data set [3], the inhibition at 50 µM stood at 73%. Further, in data set [4], the inhibition at 12 µM came to 55%. Also, the viability at 24 h, 50 µM in data set [6] worked out at 0%.

Regarding `CC[C@H]1OC(=O)[C@H](C)[C@@H](O[C@H]2C[C@@](C)(OC)[C@@H](O)[C@H](C)O2)[C@H](C)[C@@H](O[C@@H]2O[C@H](C)C[C@H]3[C@H]2O/C(=N/c2ccc(OC)cc2)N3C)[C@](C)(OC)C[C@@H](C)C(=O)N[C@H](C)[C@@H](O)[C@]1(C)O`, the inhibition at 25 µM in data set [1] was found to be 44%. The pIC50 against Cytochrome P450 3A4 [2] is 5.33; at Cytochrome P450 3A4 [5], 6.15. The minimal inhibitory concentration (MIC) in the data set with Streptococcus pyogenes was above 64 µg/mL. Further, in [3], the inhibition at 50 µM is 71%. Besides, the inhibition at 12 µM in data set [4] was 39%. Also, in data set [6], the viability at 24 h, 50 µM is 6%.

Molecule `CC[C@H]1OC(=O)[C@H](C)[C@@H](O[C@H]2C[C@@](C)(OC)[C@@H](O)[C@H](C)O2)[C@H](C)[C@@H](O[C@@H]2O[C@H](C)C[C@H]3[C@H]2O/C(=N/Cc2ccccc2)N3C)[C@@](C)(OC)C/C(C)=C2/O[C@@]1(C)C=C2C` showed an MIC with Staphylococcus aureus of 8 µg/mL (≈ 9.84 µM).

`CC[C@H]1OC(=O)[C@H](C)[C@@H](O[C@H]2C[C@@](C)(OC)[C@@H](O)[C@H](C)O2)[C@H](C)[C@@H](O[C@@H]2O[C@H](C)C[C@H]3[C@H]2O/C(=N/c2cccc4ccccc24)N3C)[C@](C)(O)C[C@@H](C)CN(C)[C@H](C)[C@@H](O)[C@]1(C)O` returned an MIC against Streptococcus pneumoniae of 1 µg/mL (≈ 1.13 µM).

With `CC[C@H]1OC(=O)[C@H](C)[C@@H](O[C@H]2C[C@@](C)(OC)[C@@H](O)[C@H](C)O2)[C@H](C)[C@@H](O[C@@H]2O[C@H](C)C[C@H]3[C@H]2O/C(=N\C(C)C)N3C)[C@](C)(O)C[C@@H](C)C(=O)[C@H](C)[C@@H](O)[C@]1(C)O`, the inhibition at 25 µM in data set [1] was 81%. The molecule further yielded an MIC against Streptococcus pyogenes above 64 µg/mL. The inhibition at 50 µM in [3] was determined as 94%. In addition, the inhibition at 12 µM in data set [4] was determined as 61%. In addition, in data set [6], the viability at 24 h, 50 µM amounted to 0%.
